Data taken from BindingDB's records for doi:10.1021/jm701049p (Seoul National University, 2008).

What follows are molecules tested against Transient receptor potential cation channel subfamily V member 1 (Rattus norvegicus, UniProt O35433) (assay: Competition Binding Assay and Inhibition of Ca2+ Uptake Assay). Conditions: pH 7.4; 37 °C.
Procedure: Binding assay mixtures were set up and contained [3H] RTX, various concentrations of competing ligands, and rVR1-transfected CHO cells. Nonspecific binding was determined in the presence of 100 nM nonradioactive RTX. After the binding reaction, membrane-bound RTX was separated from the free by centrifugation, and the radioactivity was determined by scintillation counting. Equilibrium binding parameters (Ki, Bmax, and cooperativity) were determined by fitting the Hill equation to the measured values with the aid of the program Origin 6.0.

Chain of Transient receptor potential cation channel subfamily V member 1 (O35433 whole entry): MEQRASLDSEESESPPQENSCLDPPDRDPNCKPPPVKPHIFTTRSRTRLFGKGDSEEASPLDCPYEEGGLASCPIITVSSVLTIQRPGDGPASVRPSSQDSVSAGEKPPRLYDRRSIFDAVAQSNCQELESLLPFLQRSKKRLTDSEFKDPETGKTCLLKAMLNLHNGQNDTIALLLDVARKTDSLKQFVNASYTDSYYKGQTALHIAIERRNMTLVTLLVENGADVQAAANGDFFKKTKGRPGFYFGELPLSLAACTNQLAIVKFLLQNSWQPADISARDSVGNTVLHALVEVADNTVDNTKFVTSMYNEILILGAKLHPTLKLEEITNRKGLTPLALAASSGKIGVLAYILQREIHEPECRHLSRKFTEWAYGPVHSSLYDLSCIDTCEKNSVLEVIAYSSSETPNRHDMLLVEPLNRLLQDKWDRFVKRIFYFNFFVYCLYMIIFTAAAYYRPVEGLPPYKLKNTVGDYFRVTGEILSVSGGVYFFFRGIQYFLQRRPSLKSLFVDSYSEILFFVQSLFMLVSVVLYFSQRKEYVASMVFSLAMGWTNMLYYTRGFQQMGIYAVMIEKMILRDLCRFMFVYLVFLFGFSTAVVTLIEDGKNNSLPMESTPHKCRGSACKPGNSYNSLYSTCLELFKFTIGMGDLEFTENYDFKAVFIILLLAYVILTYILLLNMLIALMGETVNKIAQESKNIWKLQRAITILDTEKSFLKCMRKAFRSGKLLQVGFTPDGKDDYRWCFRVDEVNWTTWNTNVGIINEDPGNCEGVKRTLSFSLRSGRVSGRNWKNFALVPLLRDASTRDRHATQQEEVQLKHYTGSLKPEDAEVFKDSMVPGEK

Structure (SMILES) | Ki [nM]
Cc1ccc(CC(CNC(=O)C(C)(C)c2ccc(NS(C)(=O)=O)cc2)COC(=O)C(C)(C)C)cc1C (stereo not drawn) [2-[(3,4-dimethylphenyl)methyl]-3-[2-(4-methanesulfonamidophenyl)-2-methylpropanamido]propyl 2,2-dimethylpropanoate] | 104
Cc1ccc(CC(CNC(=O)C(C)(C)c2ccc(NS(C)(=O)=O)c(F)c2)COC(=O)C(C)(C)C)cc1C (stereo not drawn) [2-[(3,4-dimethylphenyl)methyl]-3-[2-(3-fluoro-4-methanesulfonamidophenyl)-2-methylpropanamido]propyl 2,2-dimethylpropanoate] | 65
CC(C(=O)NCC(COC(=O)C(C)(C)C)Cc1ccc(C(C)(C)C)cc1)c1ccc(NS(C)(=O)=O)c(F)c1 (stereo not drawn) [diastereomeric mixture] | 3.24
COc1cc(C2(C(=O)NCC(COC(=O)C(C)(C)C)Cc3ccc(C)c(C)c3)CC2)ccc1NS(C)(=O)=O (stereo not drawn) [2-[(3,4-dimethylphenyl)methyl]-3-{[1-(4-methanesulfonamido-3-methoxyphenyl)cyclopropyl]formamido}propyl 2,2-dimethylpropanoate] | 118
C[C@H](C(=O)NC[C@H](COC(=O)C(C)(C)C)Cc1ccc(C(C)(C)C)cc1)c1ccc(NS(C)(=O)=O)c(F)c1 [(2R)-2-[(4-tert-butylphenyl)methyl]-3-[(2S)-2-(3-fluoro-4-methanesulfonamidophenyl)propanamido]propyl 2,2-dimethylpropanoate] | 0.58
C[C@H](C(=O)NC[C@@H](COC(=O)C(C)(C)C)Cc1ccccc1)c1ccc(NS(C)(=O)=O)c(F)c1 [(2S)-2-benzyl-3-[(2S)-2-(3-fluoro-4-methanesulfonamidophenyl)propanamido]propyl 2,2-dimethylpropanoate] | 10
C[C@H](C(=O)NC[C@H](COC(=O)C(C)(C)C)Cc1ccccc1)c1ccc(NS(C)(=O)=O)c(F)c1 [(2R)-2-benzyl-3-[(2S)-2-(3-fluoro-4-methanesulfonamidophenyl)propanamido]propyl 2,2-dimethylpropanoate] | 8.56
Cc1ccc(CC(CNC(=O)C(C)c2ccc(NS(C)(=O)=O)cc2)COC(=O)C(C)(C)C)cc1C (stereo not drawn) [2-[(3,4-dimethylphenyl)methyl]-3-[2-(4-methanesulfonamidophenyl)propanamido]propyl 2,2-dimethylpropanoate] | 38
C[C@@H](C(=O)NC[C@H](COC(=O)C(C)(C)C)Cc1ccccc1)c1ccc(NS(C)(=O)=O)c(F)c1 [(2R)-2-benzyl-3-[(2R)-2-(3-fluoro-4-methanesulfonamidophenyl)propanamido]propyl 2,2-dimethylpropanoate] | 98
Cc1ccc(CC(CNC(=O)C2(c3ccc(NS(C)(=O)=O)c(F)c3)CC2)COC(=O)C(C)(C)C)cc1C (stereo not drawn) [2-[(3,4-dimethylphenyl)methyl]-3-{[1-(3-fluoro-4-methanesulfonamidophenyl)cyclopropyl]formamido}propyl 2,2-dimethylpropanoate] | 567
C[C@@H](C(=O)NC[C@H](COC(=O)C(C)(C)C)Cc1ccc(C(C)(C)C)cc1)c1ccc(NS(C)(=O)=O)c(F)c1 [(2R)-2-[(4-tert-butylphenyl)methyl]-3-[(2R)-2-(3-fluoro-4-methanesulfonamidophenyl)propanamido]propyl 2,2-dimethylpropanoate] | 30.3
Cc1ccc(CC(CNC(=O)C(C)c2ccc(NS(C)(=O)=O)c(Cl)c2)COC(=O)C(C)(C)C)cc1C (stereo not drawn) [3-[2-(3-chloro-4-methanesulfonamidophenyl)propanamido]-2-[(3,4-dimethylphenyl)methyl]propyl 2,2-dimethylpropanoate] | 36
C[C@H](C(=O)NC[C@@H](COC(=O)C(C)(C)C)Cc1ccc(C(C)(C)C)cc1)c1ccc(NS(C)(=O)=O)c(F)c1 [(2S)-2-[(4-tert-butylphenyl)methyl]-3-[(2S)-2-(3-fluoro-4-methanesulfonamidophenyl)propanamido]propyl 2,2-dimethylpropanoate] | 10.9
C[C@H](C(=O)NC[C@H](COC(=O)C(C)(C)C)Cc1ccc(C(C)(C)C)cc1)c1ccc(NS(C)(=O)=O)c(Cl)c1 [(2R)-2-[(4-tert-butylphenyl)methyl]-3-[(2S)-2-(3-chloro-4-methanesulfonamidophenyl)propanamido]propyl 2,2-dimethylpropanoate] | 5.2
C[C@@H](C(=O)NC[C@@H](COC(=O)C(C)(C)C)Cc1ccc(C(C)(C)C)cc1)c1ccc(NS(C)(=O)=O)c(F)c1 [(2S)-2-[(4-tert-butylphenyl)methyl]-3-[(2R)-2-(3-fluoro-4-methanesulfonamidophenyl)propanamido]propyl 2,2-dimethylpropanoate] | 142
Cc1ccc(CC(CNC(=O)C(C)c2ccc(NS(C)(=O)=O)c(F)c2)COC(=O)C(C)(C)C)cc1C (stereo not drawn) [2-[(3,4-dimethylphenyl)methyl]-3-[2-(3-fluoro-4-methanesulfonamidophenyl)propanamido]propyl 2,2-dimethylpropanoate] | 10.8
COc1cc(C(C)(C)C(=O)NCC(COC(=O)C(C)(C)C)Cc2ccc(C)c(C)c2)ccc1NS(C)(=O)=O (stereo not drawn) [2-[(3,4-dimethylphenyl)methyl]-3-[2-(4-methanesulfonamido-3-methoxyphenyl)-2-methylpropanamido]propyl 2,2-dimethylpropanoate] | 133
CC(C(=O)NCC(COC(=O)C(C)(C)C)Cc1ccc(C(C)(C)C)cc1)c1ccc(NS(C)(=O)=O)c(Cl)c1 (stereo not drawn) [2-[(4-tert-butylphenyl)methyl]-3-[2-(3-chloro-4-methanesulfonamidophenyl)propanamido]propyl 2,2-dimethylpropanoate] | 12.3
Cc1ccc(CC(CNC(=O)C2(c3ccc(NS(C)(=O)=O)cc3)CC2)COC(=O)C(C)(C)C)cc1C (stereo not drawn) [2-[(3,4-dimethylphenyl)methyl]-3-{[1-(4-methanesulfonamidophenyl)cyclopropyl]formamido}propyl 2,2-dimethylpropanoate] | 197
C[C@H](C(=O)NC[C@@H](COC(=O)C(C)(C)C)Cc1ccc(C(C)(C)C)cc1)c1ccc(NS(C)(=O)=O)c(Cl)c1 [(2S)-2-[(4-tert-butylphenyl)methyl]-3-[(2S)-2-(3-chloro-4-methanesulfonamidophenyl)propanamido]propyl 2,2-dimethylpropanoate] | 12.1
Cc1ccc(CC(CNC(=S)NCc2ccc(NS(C)(=O)=O)c(F)c2)COC(=O)C(C)(C)C)cc1C (stereo not drawn) | 7.8
CC(C)(C)C(=O)OCC(CNC(=O)Cc1ccc(NS(C)(=O)=O)c(F)c1)Cc1ccc(C(C)(C)C)cc1 (stereo not drawn) | 440
CC(C(=O)NCC(COC(=O)C(C)(C)C)Cc1ccc(C(C)(C)C)cc1)c1ccc(NS(C)(=O)=O)cc1 (stereo not drawn) [2-[(4-tert-butylphenyl)methyl]-3-[2-(4-methanesulfonamidophenyl)propanamido]propyl 2,2-dimethylpropanoate] | 52
COc1cc(C(C)C(=O)NCC(COC(=O)C(C)(C)C)Cc2ccc(C)c(C)c2)ccc1NS(C)(=O)=O (stereo not drawn) [2-[(3,4-dimethylphenyl)methyl]-3-[2-(4-methanesulfonamido-3-methoxyphenyl)propanamido]propyl 2,2-dimethylpropanoate] | 13.6
C[C@@H](C(=O)NC[C@@H](COC(=O)C(C)(C)C)Cc1ccccc1)c1ccc(NS(C)(=O)=O)c(F)c1 [(2S)-2-benzyl-3-[(2R)-2-(3-fluoro-4-methanesulfonamidophenyl)propanamido]propyl 2,2-dimethylpropanoate] | 205
CC(C)(C)C(=O)OCC(CNC(=S)NCc1ccc(NS(C)(=O)=O)c(F)c1)Cc1ccc(C(C)(C)C)cc1 (stereo not drawn) | 52
C=C(C)[C@]12C[C@@H](C)[C@@]34OC(Cc5ccccc5)(O[C@@H]1[C@@H]3C=C(COC(=O)Cc1cc(I)c(O)c(OC)c1)C[C@]1(O)C(=O)C(C)=C[C@@H]41)O2 [[(1R,2R,6R,10S,11R,15R,17R)-13-benzyl-6-hydroxy-4,17-dimethyl-5-oxo-15-(prop-1-en-2-yl)-12,14,18-trioxapentacyclo[11.4.1.0^{1,10}.0^{2,6}.0^{11,15}]octadeca-3,8-dien-8-yl]methyl 2-(4-hydroxy-3-iodo-5-methoxyphenyl)acetate] | 12.2

Same assay, conditions: pH 7.4; 37 °C; read-out: Ki

Structure (SMILES) | Ki [nM]
C=C(C)[C@]12C[C@@H](C)[C@@]34OC(Cc5ccccc5)(O[C@@H]1[C@@H]3C=C(COC(=O)Cc1cc(I)c(O)c(OC)c1)C[C@]1(O)C(=O)C(C)=C[C@@H]41)O2 [[(1R,2R,6R,10S,11R,15R,17R)-13-benzyl-6-hydroxy-4,17-dimethyl-5-oxo-15-(prop-1-en-2-yl)-12,14,18-trioxapentacyclo[11.4.1.0^{1,10}.0^{2,6}.0^{11,15}]octadeca-3,8-dien-8-yl]methyl 2-(4-hydroxy-3-iodo-5-methoxyphenyl)acetate] | 0.61
